The values that follow come from US7098195B2, “Fluorinated glucosamine analogs useful for modulating post-translational glycosylations on cells” (Health Research, Inc., priority 2001, dated 2006).

Like-named read-outs stand apart in the source and are kept apart here. Where only a bound is given, the exact number is not on record here.

For test [1], the system named is E-selectin ligand activity of CLA+ T-lymphocytes. The test can be described thus: Parallel-plate flow chamber, CLA+ T-cell tethering and rolling on E-selectin chimera. It counts as cell-based, human. On the procedure:
To analyze the affects of 4-F-GlcNAc on the function of CLA on human T-cells, we examined the ability of 4-F-GlcNAc-treated (0.05, 0.1, 0.5 mM for 30 hrs) CLA-+ T-cells cultures to engage with immobilized E- and P-selectin chimera in the parallel-plate flow chamber. As described for flow cytometric analyses (Example 13), cells were first pretreated with neuraminidase to remove terminal sialic acid residues required for HECA-452 reactivity and for E- and P-selectin ligand activity of CLA. This approach allowed for the assessment on de novo synthesized CLA molecules.
(§1) Tethering and rolling of human T-cells on recombinant human E- and P-selectin-Ig chimera (provided by Dr. Robert Fuhlbrigge, Harvard Medical School) and human L-selectin-Ig (gift from Dr. Ray Camphausen, Wyeth/Genetics Institute, Inc., Cambridge, Mass.) were analyzed in the parallel-plate flow chamber under physiologic shear stress conditions (3). To prepare E- and P-selectin-Ig chimera spots, protein A (300 μg/15 μl 0.1M NaHCO3) was adsorbed to Ten-twenty-nine™ Petri dishes for 2 h at 37° C. Human serum albumin ([…] PBS) then added and incubated for 2 h at 37° C. to block non-specific binding sites. E-selectin-Ig (50 ng/50 μl PBS) or P-selectin-Ig (50 ng/50 μl PBS) solutions was pipetted directly over the pre-existing protein A spots for 18 h at 4° C. To prepare L-selectin-Ig spots, L-selectin-Ig (300 ng/15 μl PBS) or isotype control human IgG (300 ng/15 μl) were adsorbed directly to plastic (non-protein A-coated) for 18 h at 4° C. and blocked in 100% FBS for 2 h at 4° C.
(§2) CLA^+ T-cells or freshly isolated PBL were treated with neuraminidase and metabolic glycosylation inhibitors or with protease (bromelain) as described above, washed twice in HBSS, suspended at 2×10^6/ml in HBSS/10 mM HEPES/2 mM CaCl2 (H/H/Ca^++) and infused into the chamber over selectin chimeras. Protease treatment was performed to control for residual E-selectin activity not attributable to the expression of CLA on a protein scaffold. Cell tethering was permitted at 0.6 dynes/cm^2 for 1 min, then stepwise increments in shear stress every 15 sec were employed to a final shear stress level of 60 dynes/cm^2. The number of cells rolling/viewing field (at 100× magnification) was quantified at each level of shear stress in triplicates for a minimum of three experiments. […] Negative control experiments were performed in parallel, wherein cell binding was examined in H/H adhesion assay medium containing 5 mM EDTA as well as assaying cell binding to human IgG isotype control.
(§3) Utilizing the parallel-plate flow chamber under physiologic shear stress conditions, E-, P- and L-selectin ligand activities of human CLA^+ T-cells treated were analyzed in an identical manner as cells prepared for Western blotting and autoradiography studies.

In test [2] the test system is L-selectin ligand activity of human CLA+ T-cells. The test can be described thus: Parallel-plate flow chamber, CLA+ T-cell rolling on L-selectin chimera. It counts as cell-based. On the procedure:
as §1, §2, §3

Test [3] has as its system α-mannose (ConA staining). It counts as cell-based, human. To be noted: compared with PBS or GlcNAc treatments. On the procedure: For lectin blotting, cell lysates (25 μg/spot) were spotted onto methanol-permeabilized PVDF membrane and blocked in FBS for 1 h at RT. Blots were then probed with AP-Canavalia ensiformis agglutinin (ConA) (2.0 μg/ml PBS; specificity: α-mannose), AP-Triticum vulgaris (Wheat germ) agglutinin (WGA) (0.5 μg/ml PBS; specificity: terminal GlcNAc or GlcNAcβ1,4GlcNAc) or AP-Lycopersicon esculentum (tomato lectin) agglutinin (LEA) (1.0 μg/ml PBS; specificity: (Galβ1,4GlcNAc)n) for 1 h at RT (All lectins from EY Labs., Inc., San Mateo, Calif.). After washing 3× in PBS/0.1% Tween-20 and 1× in PBS (10 min each), blots were developed with Western Blue®.
To analyze and identify the glycan modifications on CLA^+ T-cells treated with 4-F-GlcNAc, lectin blotting experiments were performed with ConA (Specificity: α-mannose), WGA (Specificity: terminal GlcNAc or GlcNAcβ1,4GlcNAc) and LEA (Specificity: {Galβ1,4GlcNAc}n).

The test system of test [4] is P-selectin ligand activity of murine Th1 cells. The test can be described thus: Flow chamber analysis of P-selectin binding on murine Th1 cells. The class given is cell-based, mouse. The source says:
CD4+ splenocytes were isolated from C57BL-6 mice by anti-murine CD4 L3T4 magnetic bead technology (Miltenyi Biotec) according to manufacturer's protocol. […] Culturing murine T helper cells in the presence of murine IL-12 and anti-murine IL-4 produces selectin binding Th1 cells by up-regulating FucTVII (69, 70) and core 2 enzyme (43–45, 71, 72), both critical for selectin ligand synthesis (i.e. decoration of PSGL-1 (67, 68)), and prevents the production of non-selectin binding Th2 cells (67–72). Th1 cells were also generated from mice deficient in α1,3 fucosyltransferase, FucTVII, and served as negative controls (33, 38, 40). Cells were harvested and re-plated at 2×10^6cells/ml on non-Ab coated plastic with murine IL-2 (20 ng/ml) in the presence or absence of murine IL-12 (10 ng/ml) and anti-murine IL-4 moAb 11B11 (10 μg/ml) for 48 h. […] Glycosylation inhibitors were added to cultures on day 6.5 for 30 hr, after first treating cells with neuraminidase (0.1 U/ml for 1 hr at 37° C.) to remove all cell surface terminal sialic acid resides and E and P-selectin ligand activity. Since selectin ligands are dependent on terminal sialic acid (α2,3 N-acetylneuraminic acid) for activity, this approach allowed for analysis of de novo synthesized selectin ligands in the presence of 0.05 mM 4-F-GlcNAc, N-glycan inhibitors, 0.23 mM swainsonine and 0.02 mM tunicamycin, and 1 mM GlcNAc (negative control).

The mark [5] stands for this setting: at 2.0 dynes/cm^2, tunicamycin 0.02 mM, swainsonine 0.23 mM, 4-F-GlcNAc 0.05 mM, BAG 2.0 mM, p<0.01.
The mark [6] stands for this setting: 30 hr after neuraminidase, 0.05 mM 4-F-GlcNAc, 0.23 mM swainsonine, 0.02 mM tunicamycin, 1 mM GlcNAc.
[7] abbreviates: 30 h following neuraminidase digestion, drug control.

Take `CC(=O)N[C@H]1C(OC(C)=O)O[C@H](COC(C)=O)[C@@H](F)[C@@H]1OC(C)=O` (stereo partly drawn) [4-F-GlcNAc, 2-acetamido-2-deoxy-1,3,6-tri-O-acetyl-4-deoxy-4-fluoro-D-glucopyranose]: the “E-selectin ligand activity compared with protease treatment” value in test [1] is “did not reduce E-selectin ligand activity below that of protease-treatment”. Also, the “difference in cell rolling frequency on E-selectin chimera vs PBS recovery” value in test [1] (0.05 mM, p<0.001) was “statistically significant”. In addition, the “rolling adhesions on E-selectin chimera” value in test [1] (setting [5]) is “significant reductions”. In test [1] (neuraminidase then 0.1 and 0.5 mM for 30 hrs), the “CLA+ T-cell tethering and rolling mediated by E-selectin” value is “completely abolished”. For the same molecule, the “rolling adhesions on L-selectin chimera” value in test [2] (setting [5]) is listed as “significant reductions”. The “ConA staining of lysates” value in test [3] is “no effect”. Moreover, the “recovery of P-selectin ligand activity of Th1 cells” value in test [4] (setting [6]) is “completely inhibited”.
`CC(=O)N[C@H]1C(O)O[C@H](CO)[C@@H](O)[C@@H]1O` (stereo partly drawn) [GlcNAc, N-acetylglucosamine]: the “recovery of E-selectin ligand activity” value in test [1] (setting [7]) is listed as over 80 % recovery. In addition, in test [2] (setting [7]), the “recovery of L-selectin ligand activity” value is given as over 80 % recovery. For the same molecule, in test [4] (setting [6]), the “recovery of P-selectin ligand activity of Th1 cells” value is “no effect”.
Turning to `O[C@H]1[C@H]2[C@H](O)CCCN2C[C@H]1O` [swainsonine], the “rolling adhesions on E-selectin chimera” value in test [1] was “no effect”. Moreover, the “rolling adhesions on L-selectin chimera” value in test [2] is recorded as “no effect”. For the same molecule, the “ConA staining of lysates” value in test [3] was “enhanced”. Also, in test [4], the “recovery of P-selectin ligand activity of Th1 cells” value is recorded as “no effect”.
For tunicamycin, the “rolling adhesions on E-selectin chimera” value in test [1] is reported as “significant reductions”. Also, the “rolling adhesions on L-selectin chimera” value in test [2] is reported as “significant reductions”. Besides, in test [3], the “ConA staining of lysates” value is “eliminated”. Besides, the “recovery of P-selectin ligand activity of Th1 cells” value in test [4] is listed as “completely inhibited”.
